Here are results for 19 compounds from patent US20060276464A1, “Diarylsulfone sulfonamides and use thereof” (Wyeth, priority 2005, published 2006).

Test [1] addresses T1, SFRP-1 (Homo sapiens, UniProt Q8N474).
T1 sequence (Q8N474 32-314): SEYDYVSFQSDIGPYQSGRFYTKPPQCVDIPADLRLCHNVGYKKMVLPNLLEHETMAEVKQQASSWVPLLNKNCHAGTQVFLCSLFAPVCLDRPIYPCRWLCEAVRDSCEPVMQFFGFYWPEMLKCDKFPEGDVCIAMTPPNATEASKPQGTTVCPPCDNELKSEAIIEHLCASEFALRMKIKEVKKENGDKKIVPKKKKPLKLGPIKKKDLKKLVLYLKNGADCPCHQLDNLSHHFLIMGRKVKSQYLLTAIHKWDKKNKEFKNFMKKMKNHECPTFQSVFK
The test can be described thus: Fluorescence polarization binding assay (competitive displacement of a probe compound from SFRP-1).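 Further: test compound competes with a fluorescent probe held by SFRP-1, seen as a drop in probe anisotropy after incubation in darkness, with anisotropy as function of rising compound dose.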 Particulars: fluorescence anisotropy, 45 nM SFRP-1, 20 nM probe. (In general: In fluorescence polarisation assays a small probe gives low polarisation when free and higher when bound to something large.)

The target of test [2] is T1, SFRP-1. In words: Cell-based assay for in vitro measurement of SFRP-1/SARP2 antagonist activity (U2OS cells co-transfected with 16x TCF-tk-Luciferase reporter, Wnt and hSFRP-1).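 On all read-outs here: U2OS cells co-transfected with a TCF-tk luciferase reporter, a Wnt vector, hSFRP-1 or empty vector and CMV-βgal, luciferase luminescence read in cell lysates alongside βgal activity.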 The note with it: for fold induction at 10 µM: U2OS. (A reporter such as luciferase makes a cellular process visible.)
The mark [3] stands for this setting: read-out: Fold Induction with SFRP-1, U2OS cells, single dose 10 μM, luciferase reporter, fold induction over SFRP-1 control.
[4] abbreviates: read-out: Fold Induction with SFRP-1.

pEC50, pIC50: −log10 of the molar value. Like-named read-outs stand apart in the source and are kept apart here.

As for `O=S(=O)(NC1CCNCC1)c1cc(S(=O)(=O)c2ccccc2NCCO)ccc1C(F)(F)F` [Example 869, 5-({2-[(2-hydroxyethyl)amino]phenyl}sulfonyl)-N-piperidin-4-yl-2-(trifluoromethyl)benzenesulfonamide], the pIC50 (in general, the IC50 on a negative log10 scale, so that one unit is a factor of ten) on SFRP-1 [1] is 5.92. Also, the pEC50 (in general, −log10 of the EC50, conventionally taken in molar units) on SFRP-1 [2] is 5.75. The fold induction at 10 µM at SFRP-1 [2] (setting [3]) is 3.5.

The compound `CC(C)COC(=O)N(C)CCNS(=O)(=O)c1cc(S(=O)(=O)c2ccccc2)ccc1C(F)(F)F` [Example 870, isobutyl methyl[2-({[5-(phenylsulfonyl)-2-(trifluoromethyl)phenyl]sulfonyl}amino)ethyl]carbamate] had a negative logarithm of the IC50 (pIC50) on SFRP-1 [1] of 6.10. The fold induction at 10 µM on SFRP-1 [2] (setting [3]) was determined as 2.5.

Regarding `CN(CCNS(=O)(=O)c1cc(S(=O)(=O)c2ccccc2)ccc1C(F)(F)F)C(=O)Oc1cccc(C(F)(F)F)c1` [Example 871, 3-(trifluoromethyl)phenyl methyl[2-({[5-(phenylsulfonyl)-2-(trifluoromethyl)phenyl]sulfonyl}amino)ethyl]carbamate], at SFRP-1 [1], the negative logarithm of the IC50 (pIC50) was 6.22. The compound also gave a pEC50 at SFRP-1 [2] of 5.42. On SFRP-1 [2] (setting [4]), the fold induction at 10 µM was found to be 2.

At SFRP-1 [1], `CN(CCNS(=O)(=O)c1cc(S(=O)(=O)c2ccccc2)ccc1C(F)(F)F)C(=O)Oc1ccc(F)cc1` [Example 872, 4-fluorophenyl methyl[2-({[5-(phenylsulfonyl)-2-(trifluoromethyl)phenyl]sulfonyl]amino)ethyl]carbamate] showed a negative-log IC50 (pIC50) of 6.22. The pEC50 at SFRP-1 [2] was 5.71. In addition, the fold induction at 10 µM on SFRP-1 [2] (setting [4]) was found to be 3.1.

In turn, `CN(CCNS(=O)(=O)c1cc(S(=O)(=O)c2ccccc2)ccc1C(F)(F)F)C(=O)Oc1ccc(Br)cc1` [Example 873, 4-bromophenyl methyl[2-({[5-(phenylsulfonyl)-2-(trifluoromethyl)phenyl]sulfonyl}amino)ethyl]carbamate] showed a negative-log IC50 (pIC50) on SFRP-1 [1] of 5.80. Besides, at SFRP-1 [2] (setting [4]), the fold induction at 10 µM came to 2.1.

On to `CCCc1ccc(S(=O)(=O)c2ccccc2)cc1S(=O)(=O)NCCc1cccnc1` [Example 876, 5-(Phenylsulfonyl)-2-propyl-N-(2-pyridin-3-ylethyl)benzenesulfonamide], for which the pIC50 at SFRP-1 [1] was 6.10. Also, on SFRP-1 [2], the negative logarithm of the EC50 (pEC50) is 5.87. Besides, the fold induction at 10 µM at SFRP-1 [2] (setting [3]) was determined as 3.

Turning to `O=C(O)c1ccc(CCNS(=O)(=O)c2cc(S(=O)(=O)c3ccccc3)ccc2C(F)(F)F)cc1` [Example 877, 4-[2-({[5-(phenylsulfonyl)-2-(trifluoromethyl)phenyl]sulfonyl}amino)ethyl]benzoic acid], on SFRP-1 [1], the negative logarithm of the IC50 (pIC50) was 7.52. At SFRP-1 [2], this compound gave a pEC50 of 6.59. The fold induction at 10 µM on SFRP-1 [2] (setting [3]) was found to be 3.9.

`CN(CCNS(=O)(=O)c1cc(S(=O)(=O)c2ccccc2)ccc1C(F)(F)F)C(=O)NC1CCNCC1` [Example 881, N-(2-{methyl[(piperidin-4-ylamino)carbonyl]amino}ethyl)-5-(phenylsulfonyl)-2-(trifluoromethyl)benzenesulfonamide] gave a negative-log IC50 (pIC50) on SFRP-1 [1] of 6.55. Further, at SFRP-1 [2], the pEC50 was 6.07. Besides, the fold induction at 10 µM on SFRP-1 [2] (setting [3]) came out at 3.4.

The compound `CCOC(=O)CNC(=O)N(C)CCNS(=O)(=O)c1cc(S(=O)(=O)c2ccccc2)ccc1C(F)(F)F` [Example 882, ethyl N-({methyl[2-({[5-(phenylsulfonyl)-2-(trifluoromethyl)phenyl]sulfonyl}amino)ethyl]amino}carbonyl)glycinate] had a pIC50 at SFRP-1 [1] of 7.10. For the same compound, the pEC50 at SFRP-1 [2] was 6.20. The fold induction at 10 µM on SFRP-1 [2] (setting [3]) is 3.4.

`CN(CCNS(=O)(=O)c1cc(S(=O)(=O)c2ccccc2)ccc1C(F)(F)F)S(=O)(=O)c1cccc(C(=O)O)c1` [Example 883, 3-({methyl[2-({[5-(phenylsulfonyl)-2-(trifluoromethyl)phenyl]sulfonyl}amino)ethyl]amino}sulfonyl)benzoic acid] showed a pIC50 at SFRP-1 [1] of 6.40. This compound showed a negative logarithm of the EC50 (pEC50) at SFRP-1 [2] of 5.59. Also, the fold induction at 10 µM on SFRP-1 [2] (setting [3]) was 2.7.

The compound `CC(C)c1ccc(S(=O)(=O)c2ccc(F)cc2)cc1S(=O)(=O)NCCC1CCCNC1` (centres unmarked) [Example 884, 5-[(4-fluorophenyl)sulfonyl]-2-isopropyl-N-(2-piperidin-3-ylethyl)benzenesulfonamide] showed a negative-log IC50 (pIC50) at SFRP-1 [1] of 5.80. For the same compound, the pEC50 at SFRP-1 [2] is 5.47. For the same compound, the fold induction at 10 µM on SFRP-1 [2] (setting [3]) turned out to be 2.7.

Regarding `O=S(=O)(NC1CCN(Cc2nn[nH]n2)CC1)c1cc(S(=O)(=O)c2ccccc2)ccc1C(F)(F)F` [Example 885, 5-(phenylsulfonyl)-N-[1-(2H-tetrazol-5-ylmethyl)piperidin-4-yl]-2-(trifluoromethyl)benzenesulfonamide], the pIC50 at SFRP-1 [1] is 6.40. At SFRP-1 [2], the negative-log EC50 (pEC50) was 5.68. Moreover, the fold induction at 10 µM on SFRP-1 [2] (setting [3]) stood at 2.7.

For the compound `O=C(O)CCC(=O)N1CCC(NS(=O)(=O)c2cc(S(=O)(=O)c3ccccc3)ccc2C(F)(F)F)C1` (centres unmarked) [Example 886, 4-oxo-4-[3-({[5-(phenylsulfonyl)-2-(trifluoromethyl)phenyl]sulfonyl}amino)pyrrolidin-1-yl]butanoic acid], on SFRP-1 [1], the pIC50 is 6.82. Also, the pEC50 at SFRP-1 [2] is 5.88. Also, the fold induction at 10 µM at SFRP-1 [2] (setting [3]) was 2.7.

In turn, `CN(CCNS(=O)(=O)c1cc(S(=O)(=O)c2ccccc2)ccc1C(F)(F)F)C(=O)N1CCN(C(=O)OC(C)(C)C)CC1` [Example 887, tert-butyl 4-({methyl[2-({[5-(phenylsulfonyl)-2-(trifluoromethyl)phenyl]sulfonyl}amino)ethyl]amino}carbonyl)piperazine-1-carboxylate] showed a pIC50 on SFRP-1 [1] of 5.52. For the same compound, on SFRP-1 [2], the pEC50 was 5.75. Further, the fold induction at 10 µM at SFRP-1 [2] (setting [3]) was found to be 2.3.

On SFRP-1 [1], `CN(CCNS(=O)(=O)c1cc(S(=O)(=O)c2ccccc2)ccc1C(F)(F)F)C(=O)NCC(=O)O` [Example 888, N-({methyl[2-({[5-(phenylsulfonyl)-2-(trifluoromethyl)phenyl]sulfonyl}amino)ethyl]amino}carbonyl)glycine] gave a pIC50 of 6.05. Besides, the pEC50 at SFRP-1 [2] was 5.75. The fold induction at 10 µM at SFRP-1 [2] (setting [3]) was 2.1.

On to `O=C(O)CCNS(=O)(=O)c1cc(S(=O)(=O)c2ccccc2)ccc1C(F)(F)F` [Example 889, N-{[5-(phenylsulfonyl)-2-(trifluoromethyl)phenyl]sulfonyl}-[…]-alanine], for which the negative-log IC50 (pIC50) at SFRP-1 [1] was 5.40. The fold induction at 10 µM at SFRP-1 [2] (setting [3]) stood at 1.3.

As to `O=C(O)CCCNS(=O)(=O)c1cc(S(=O)(=O)c2ccccc2)ccc1C(F)(F)F` [Example 893, 4-({[5-(phenylsulfonyl)-2-(trifluoromethyl)phenyl]sulfonyl}amino)butanoic acid], the pIC50 at SFRP-1 [1] is 6.15. Further, the fold induction at 10 µM on SFRP-1 [2] (setting [3]) is 1.8.

For `O=C(O)CCCC(=O)N1CCC(NS(=O)(=O)c2cc(S(=O)(=O)c3ccccc3)ccc2C(F)(F)F)C1` (centres unmarked) [Example 895, 5-oxo-5-[3-({[5-(phenylsulfonyl)-2-(trifluoromethyl)phenyl]sulfonyl}amino)pyrrolidin-1-yl]pentanoic acid], the negative-log IC50 (pIC50) on SFRP-1 [1] was 6.72. Further, the negative logarithm of the EC50 (pEC50) at SFRP-1 [2] is 6.06. Also, the fold induction at 10 µM on SFRP-1 [2] (setting [3]) stood at 2.9.

Consider `CC(C)(C)OC(=O)N1CCC(CNS(=O)(=O)c2cc(S(=O)(=O)c3ccccc3)ccc2C(F)(F)F)CC1` [Example 896, tert-butyl 4-[({[5-(phenylsulfonyl)-2-(trifluoromethyl)phenyl]sulfonyl}amino)methyl]piperidine-1-carboxylate], for which the pIC50 on SFRP-1 [1] is 6.52. Further, the negative logarithm of the EC50 (pEC50) on SFRP-1 [2] is 6.17. Further, the fold induction at 10 µM on SFRP-1 [2] (setting [3]) was 2.9.
